These results are taken from patent publication US20220340875A1, “METHODS OF CULTURING AND/OR EXPANDING STEM CELLS AND/OR LINEAGE COMMITTED PROGENITOR CELLS USING AMIDO COMPOUNDS” (IDEAYA BIOSCIENCES, INC., priority 2018, published 2022).

Some results are limits rather than exact numbers.

The target of this test is T1, hAhR (Homo sapiens, UniProt P35869).
T1 construct: Stably integrated DRE-luciferase cell lines were generated by transducing the both cell lines with Cignal XRE luciferase reporter (Qiagen) lentiviral particles; endogenous in cells
T1 sequence (P35869 11-848): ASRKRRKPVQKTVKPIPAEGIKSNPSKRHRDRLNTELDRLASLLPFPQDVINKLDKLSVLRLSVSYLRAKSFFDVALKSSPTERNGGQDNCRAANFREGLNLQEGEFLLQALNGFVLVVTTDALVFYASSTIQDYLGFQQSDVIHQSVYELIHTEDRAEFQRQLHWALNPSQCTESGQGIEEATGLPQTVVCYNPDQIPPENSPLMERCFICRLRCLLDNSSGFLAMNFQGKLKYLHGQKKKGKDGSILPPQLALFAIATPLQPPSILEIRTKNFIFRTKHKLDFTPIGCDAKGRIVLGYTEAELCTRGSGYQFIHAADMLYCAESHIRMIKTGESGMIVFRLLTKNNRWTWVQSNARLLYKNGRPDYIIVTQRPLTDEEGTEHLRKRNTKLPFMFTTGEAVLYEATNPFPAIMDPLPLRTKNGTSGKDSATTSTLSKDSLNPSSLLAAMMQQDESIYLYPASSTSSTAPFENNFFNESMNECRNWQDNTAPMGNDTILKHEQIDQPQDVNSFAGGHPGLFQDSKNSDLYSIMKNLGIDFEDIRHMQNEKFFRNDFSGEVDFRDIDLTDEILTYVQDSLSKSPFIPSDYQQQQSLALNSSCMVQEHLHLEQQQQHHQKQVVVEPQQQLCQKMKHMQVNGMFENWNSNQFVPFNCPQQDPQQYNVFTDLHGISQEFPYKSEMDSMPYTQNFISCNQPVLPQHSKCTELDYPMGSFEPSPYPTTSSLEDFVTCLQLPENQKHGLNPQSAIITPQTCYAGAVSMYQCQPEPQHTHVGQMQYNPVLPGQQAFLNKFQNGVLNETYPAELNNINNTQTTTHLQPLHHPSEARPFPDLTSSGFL
The test is described as follows: AhR DRE-luciferase reporter transcriptional assay, antagonist mode (TCDD-induced). It counts as cell-based. Particulars: HEPG2 DRE-Luc cells, 3 nM TCDD, 24 hour incubation, relative IC50. The procedure:
HEPG2 and HEPA1C1C7 cells were maintained in MEM and αMEM without nucleosides supplemented with 10% heat inactivated FBS respectively. Stably integrated DRE-luciferase cell lines were generated by transducing the both cell lines with Cignal XRE luciferase reporter (Qiagen) lentiviral particles according to the manufacturer protocol. For both cell lines stably integrated reporter cell lines were selected for the presence of 2 µg/mL puromycin. Following selection of stably integrated cell line pools, clonal cell lines were isolated by limiting dilution in 96-well plates. Transcriptional assays were performed by seeding 100 μL of cells at a density of 250,000 or 100,000 cells/mL, for HEPG2 and HEPA1C1C7 DRE-Luc cells respectively, into 96-well cell culture plates in OptiMEM supplemented with 0.5% heat inactivated FBS and allowed to attach overnight. For modulator assays, the compounds were added in a semi-log dose response using a D300e Digital Dispenser (Tecan) followed normalization with vehicle (DMSO). Immediately following compound addition 10 μL of 2,3,7,8-Tetrachlorodibenzo-p-dioxin (TCDD) was added to the cells to a final concentration of 3 nM or 0.3 nM for the HEPG2 and HEPA1C1C7 DRE-Luc cells respectively. Following 24 hour incubation the medium was removed and the cells were lysed in 25 μL of Reporter Lysis Buffer (Promega). Firefly luciferase activity was measured immediately following the addition of 50 μL Luciferase Assay Reagent (Promega). The percent maximal activity for each point was determined using the following equasion: (RLUsample-RLUvehicle−TCDD)/(RLUvehicle+TCDD RLUvehicle−TCDD)*100. The relative IC50, defined as the compound concentration required to reduce the TCDD induced response between the top and bottom plateau of each individual dose response curve by half, for each compound was determined using Prism 7 (GraphPad Software).
In general terms: In a reporter assay the amount or activity of a reporter protein is the signal.

One may read the IC50 as the concentration at which inhibition is half-maximal. `Cc1cc(-c2ncc3nc(C(F)(F)F)ccc3n2)ccc1N(C)C(=O)c1ccnn1C` [Example 136, N,1-dimethyl-N-(2-methyl-4-(6-(trifluoromethyl)pyrido[3,2-d]pyrimidin-2-yl)phenyl)-1H-pyrazole-5-carboxamide] displayed a half-inhibitory concentration (IC50) of under 200 nM.

Molecule `Cc1cc(-c2ccc3cc(F)ccc3n2)ccc1NC(=O)c1cn(C)cn1` [Example 035, N-(4-(6-fluoroquinolin-2-yl)-2-methylphenyl)-1-methyl-1H-imidazole-4-carboxamide] yielded a half-inhibitory concentration (IC50) of 1000 to 10000 nM.

`Cc1cc(-c2ccc3cccc(F)c3n2)ccc1NC(=O)c1ccnn1C` [Example 018, N-(4-(8-fluoroquinolin-2-yl)-2-methylphenyl)-1-methyl-1H-pyrazole-5-carboxamide] had a 50% inhibitory concentration (IC50) of under 200 nM.

As for `Cc1cc(-c2ncc3nc(C(F)(F)F)cc(C)c3n2)ccc1N(C)C(=O)c1ccnc(C(N)=O)c1` [Example 168, N4-methyl-N4-(2-methyl-4-(8-methyl-6-(trifluoromethyl)pyrido[3,2-d]pyrimidin-2-yl)phenyl)pyridine-2,4-dicarboxamide], the half-inhibitory concentration (IC50) was under 200 nM.

Regarding `Cc1cc(-c2ccc3ncn(C)c3c2)ccc1NC(=O)c1ccnn1C` [Example 089, 1-Methyl-N-(2-methyl-4-(1-methyl-1H-benzo[d]imidazol-6-yl)phenyl)-1H-pyrazole-5-carboxamide], the IC50 was 1000 to 10000 nM.

Molecule `Cc1cc(-c2ncc3cc(C(F)(F)F)ccc3n2)ccc1N(C)C(=O)c1ccncc1` [Example 116, N-methyl-N-(2-methyl-4-(6-(trifluoromethyl)quinazolin-2-yl)phenyl)isonicotinamide] yielded an IC50 of under 200 nM.

In turn, `Cc1cc(-c2ccc3cc(F)ccc3n2)ccc1NC(=O)c1ncco1` [Example 039, N-(4-(6-fluoroquinolin-2-yl)-2-methylphenyl)oxazole-2-carboxamide] displayed an IC50 of 500 to 1000 nM.

For `Cc1c(-c2ncc3cc(C(F)(F)F)ccc3n2)ccc(N(C)C(=O)c2ccnn2C)c1F` [Example 114, N-(2-fluoro-3-methyl-4-(6-(trifluoromethyl)quinazolin-2-yl)phenyl)-N,1-dimethyl-1H-pyrazole-5-carboxamide], the concentration for half-maximal inhibition (IC50) is under 200 nM.

For `Cc1cc(-c2ncc3ccc(C(F)(F)F)cc3n2)ccc1NC(=O)c1ccnn1C` [Example 108, 1-methyl-N-(2-methyl-4-(7-(trifluoromethyl)quinazolin-2-yl)phenyl)-1H-pyrazole-5-carboxamide], the IC50 was under 200 nM.

For `Cc1cc(-c2ccc3cc(C(F)(F)F)ccc3n2)cc(F)c1NC(=O)c1ccnn1C` [Example 008, N-(2-fluoro-6-methyl-4-(6-(trifluoromethyl)quinolin-2-yl)phenyl)-1-methyl-1H-pyrazole-5-carboxamide], the half-inhibitory concentration (IC50) is under 200 nM.

The molecule `CC(=O)Nc1ccc(-c2ccc3cc(F)ccc3n2)cc1C` [Example 040, N-(4-(6-fluoroquinolin-2-yl)-2-methylphenyl)acetamide] had an IC50 of 200 to 500 nM.

In the case of `Cc1cc(-c2ccc3cc(C(F)(F)F)cc(C)c3n2)ccc1N(C)C(=O)c1ccnn1CCO` [Example 201, 1-(2-hydroxyethyl)-N-methyl-N-(2-methyl-4-(8-methyl-6-(trifluoromethyl)-quinolin-2-yl)phenyl)-1H-pyrazole-5-carboxamide], the IC50 was under 200 nM.

`Cc1cc(-c2nc3ccc(C(F)(F)F)cc3s2)ccc1NC(=O)c1ccnn1C` [Example 101, 1-methyl-N-(2-methyl-4-(6-(trifluoromethyl)benzo[d]thiazol-2-yl)phenyl)-1H-pyrazole-5-carboxamide] returned an IC50 of 200 to 500 nM.

Turning to `Cc1cc(-c2ccc3cncc(Cl)c3c2)ccc1NC(=O)c1ccnn1C` [Example 060, N-(4-(4-chloroisoquinolin-6-yl)-2-methylphenyl)-1-methyl-1H-pyrazole-5-carboxamide], the IC50 fell in the range of 200 to 500 nM.

`Cc1cc(C(=O)Nc2ccc(-c3ncc4cc(C(F)(F)F)ccc4n3)cc2C)ccn1` [Example 119, 2-methyl-N-(2-methyl-4-(6-(trifluoromethyl)quinazolin-2-yl)phenyl)isonicotinamide] gave a concentration for half-maximal inhibition (IC50) of under 200 nM.

Consider `Cc1cc(-c2ncc3nc(C(F)(F)F)ccc3n2)ccc1NC(=O)c1ccnn1CC(C)O` (stereo not drawn) [Example 193, 1-(2-hydroxypropyl)-N-(2-methyl-4-(6-(trifluoromethyl)pyrido[3,2-d]pyrimidin-2-yl)phenyl)-1H-pyrazole-5-carboxamide], for which the IC50 fell in the range of 500 to 1000 nM.

In turn, `Cc1cc(-c2ncc3cc(C(F)(F)F)ccc3n2)ccc1NC(=O)c1cn(C)nc1C` [Example 219, 1,3-dimethyl-N-(2-methyl-4-(6-(trifluoromethyl)quinazolin-2-yl)phenyl)-1H-pyrazole-4-carboxamide] showed an IC50 of under 200 nM.

On to `Cc1cc(-c2ccc3cnn(C)c3c2)ccc1NC(=O)c1ccnn1C` [Example 090, 1-Methyl-N-(2-methyl-4-(1-methyl-1H-indazol-6-yl)phenyl)-1H-pyrazole-5-carboxamide], for which the IC50 lay within 1000 to 10000 nM.

`Cc1cc(-c2ccc3c(C(F)(F)F)cn(C)c3c2)ccc1NC(=O)c1ccnn1C` [Example 086, 1-methyl-N-(2-methyl-4-(1-methyl-3-(trifluoromethyl)-1H-indol-6-yl)phenyl)-1H-pyrazole-5-carboxamide] registered a concentration for half-maximal inhibition (IC50) of 1000 to 10000 nM.

`Cc1cc(-c2ncc3nc(C(F)(F)F)ccc3n2)ccc1NC(=O)c1ccnn1C` [Example 135, 1-methyl-N-(2-methyl-4-(6-(trifluoromethyl)pyrido[3,2-d]pyrimidin-2-yl)phenyl)-1H-pyrazole-5-carboxamide]: the IC50 is under 200 nM.

`[2H]C([2H])([2H])N(C(=O)c1ccnn1C)c1ccc(-c2ccc3cc(C(F)(F)F)ccc3n2)cc1C` [Example 212, 1-methyl-N-(methyl-d3)-N-(2-methyl-4-(6-(trifluoromethyl)quinolin-2-yl)phenyl)-1H-pyrazole-5-carboxamide] had an IC50 of under 200 nM.

`Cc1cc(-c2nc3ccc(F)cc3s2)ccc1NC(=O)c1ccnn1C` [Example 098, N-(4-(6-fluorobenzo[d]thiazol-2-yl)-2-methylphenyl)-1-methyl-1H-pyrazole-5-carboxamide] had an IC50 of 1000 to 10000 nM.

Turning to `Cc1cc(-c2ccc3nc(C(F)(F)F)cc(C)c3n2)ccc1NC(=O)c1ccnn1C` [Example 105, 1-methyl-N-(2-methyl-4-(8-methyl-6-(trifluoromethyl)-1,5-naphthyridin-2-yl)phenyl)-1H-pyrazole-5-carboxamide], the half-inhibitory concentration (IC50) was under 200 nM.

Consider `COc1cnccc1C(=O)N(C)c1ccc(-c2ncc3nc(C(F)(F)F)cc(C)c3n2)cc1C` [Example 183, 3-methoxy-N-methyl-N-(2-methyl-4-(8-methyl-6-(trifluoromethyl)-pyrido[3,2-d]pyrimidin-2-yl)phenyl)isonicotinamide], for which the IC50 was under 200 nM.

Take `Cc1c(N(C)C(=O)c2ccnn2C)ccc(-c2ncc3nc(C(F)(F)F)cc(C)c3n2)c1F` [Example 175, N-(3-fluoro-2-methyl-4-(8-methyl-6-(trifluoromethyl)pyrido[3,2-d]pyrimidin-2-yl)phenyl)-N,1-dimethyl-1H-pyrazole-5-carboxamide]: the concentration for half-maximal inhibition (IC50) is under 200 nM.

Regarding `Cc1cc(-c2ccc3cc([N+](=O)[O-])ccc3n2)ccc1NC(=O)c1ccnn1C` [Example 076, 1-methyl-N-(2-methyl-4-(6-nitroquinolin-2-yl)phenyl)-1H-pyrazole-5-carboxamide], the IC50 is under 200 nM.

The molecule `Cc1cc(N(C)C(=O)c2ccnn2C)ccc1-c1ncc2nc(C(F)(F)F)ccc2n1` [Example 187, N,1-dimethyl-N-(3-methyl-4-(6-(trifluoromethyl)pyrido[3,2-d]pyrimidin-2-yl)phenyl)-1H-pyrazole-5-carboxamide] showed a half-maximal inhibitory concentration (IC50) of under 200 nM.
